Test results: US20230101747A1 (Schrödinger, Inc., priority 2019, published 2023)
Like-named read-outs stand apart in the source and are kept apart here.

Key:
[1] = test system: phosphorylation of MCM2 S53 (CDC7 substrate) in colo205 cells; experiment: Phosphorylated MCM2 MSD electrochemiluminescence assay; type: cell-based; conditions: Homo sapiens, read-out: pMCM2-S53 MSD Colo205 IC50
Description: Phosphorylated MCM2 MSD Electrochemiluminescence Assay
The effect of CDC7 inhibitors on cellular phosphorylation of the CDC7 substrate MCM2 was determined using the following protocol:
A total of 40,000 colo205 cells in 100 uL culture medium (1640 medium+10% Fetal bovine serum+1% Penicillin-Streptomycin) were plated in 96-well cell culture plates and allowed to attach for 6 hours. 3-fold serial dilutions of test compounds were prepared in completed PBS at 25× final concentration and 4 uL of each were added to the cells and incubated for 20 hours at 37° C., 5% CO2. Each concentration was tested in duplicate. After the 20 h incubation, cells were washed with 150 uL PBS and lysed with 40 uL MSD lysis buffer (obtained from Meso Scale Diagnostics) supplied with 1× complete ULTRA cocktail inhibitor (obtained from Roche). To detect phosphorylation of MCM2 S53, 30 μL of capture antibody solution (obtained from Abnova, catalog number H00004171-M01, 1:500) was added to each well of MULTI-ARRAY 96-well High Bind Plate, and incubated overnight. The antibody solution was removed, wells blocked with BSA solution and plates washed, followed by addition of 30 ul of cell lysate per well. After 2 h incubation, plates were washed. 30 μL of 1× detection antibody solution (obtained from Abcam, catalog number ab109133, 1:1000) was then added to each well and incubate for 1 hour. Plates were washed and 30 μL of 1× secondary antibody solution (obtained from MSD, catalog number R32AB-1, 1:5000) was added to each well and incubate for 1 hour. Plates were washed and 150 μL of 1× Read Buffer T was added to each well of the MSD plate. The electrochemiluminescence signal was measured on a MESO SECTOR S600 plate reader. The percentage of remaining phosphorylated MCM2 signal was calculated following the equation below.
HC (high control): Cells treated with DMSO Cpds: Cells treated with test compounds LC (low control): Cells treated with positive control CDC7 inhibitor

[2] = target: T1, Full length human CDC7 protein co-expressed with DBF4 (Homo sapiens, UniProt O00311); experiment: CDC7 kinase biochemical assay (ADP-Glo, PDKtide substrate); conditions: 0.1 nM CDC7/DBF4, 1 uM ATP, 10 uM PDKtide, 4 h; read-out: CDC7 ADP-Glo PDKtide IC50
T1 construct: Full length human CDC7 protein co-expressed with DBF4; purchased SignalChem (China)
Outline: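 Full-length human CDC7 co-expressed with DBF4 (0.1 nM) incubated 4 h with 1 uM ATP and 10 uM PDKtide in 40 mM Tris pH 7.5, 20 mM MgCl2, 0.1 mg/ml BSA, 50 uM DTT. ADP formed read by ADP-Glo luminescence. % inhibition scaled between DMSO (high) and reference CDC7 inhibitor (low) controls.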

[3] = COLO 205, colo205 cells, 20 h incubation

T1 sequence (O00311 whole entry): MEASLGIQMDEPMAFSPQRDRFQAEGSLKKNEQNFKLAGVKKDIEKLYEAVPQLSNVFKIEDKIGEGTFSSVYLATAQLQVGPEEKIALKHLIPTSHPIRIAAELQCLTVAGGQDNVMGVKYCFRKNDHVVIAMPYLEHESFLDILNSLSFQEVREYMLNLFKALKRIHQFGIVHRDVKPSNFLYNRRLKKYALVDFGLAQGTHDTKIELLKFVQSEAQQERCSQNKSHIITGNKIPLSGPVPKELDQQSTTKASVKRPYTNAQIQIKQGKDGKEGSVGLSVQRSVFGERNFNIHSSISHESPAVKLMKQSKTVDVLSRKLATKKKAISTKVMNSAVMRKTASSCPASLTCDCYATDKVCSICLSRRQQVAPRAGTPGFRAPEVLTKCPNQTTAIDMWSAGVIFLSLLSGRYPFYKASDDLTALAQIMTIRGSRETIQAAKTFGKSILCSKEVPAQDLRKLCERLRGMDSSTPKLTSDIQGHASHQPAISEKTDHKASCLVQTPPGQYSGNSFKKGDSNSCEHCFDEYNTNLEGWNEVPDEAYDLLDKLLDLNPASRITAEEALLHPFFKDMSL
T1 sequence (Q9UBU7 whole entry partner): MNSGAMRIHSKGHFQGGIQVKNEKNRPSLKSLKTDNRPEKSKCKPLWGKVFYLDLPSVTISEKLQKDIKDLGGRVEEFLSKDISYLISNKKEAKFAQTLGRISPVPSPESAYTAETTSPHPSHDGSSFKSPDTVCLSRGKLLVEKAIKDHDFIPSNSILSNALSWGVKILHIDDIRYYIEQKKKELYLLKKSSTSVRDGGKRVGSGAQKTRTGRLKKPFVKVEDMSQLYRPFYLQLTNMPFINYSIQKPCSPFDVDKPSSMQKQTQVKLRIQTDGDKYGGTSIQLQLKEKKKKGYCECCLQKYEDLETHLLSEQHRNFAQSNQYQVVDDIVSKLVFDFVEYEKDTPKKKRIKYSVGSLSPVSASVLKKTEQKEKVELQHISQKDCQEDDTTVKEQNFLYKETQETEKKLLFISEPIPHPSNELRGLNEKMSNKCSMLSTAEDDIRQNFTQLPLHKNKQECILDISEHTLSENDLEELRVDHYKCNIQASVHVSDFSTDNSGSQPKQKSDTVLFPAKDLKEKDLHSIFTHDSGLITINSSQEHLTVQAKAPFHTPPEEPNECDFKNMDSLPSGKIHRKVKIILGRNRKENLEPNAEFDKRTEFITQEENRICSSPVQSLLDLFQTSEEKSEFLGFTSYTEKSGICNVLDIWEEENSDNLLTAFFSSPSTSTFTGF

Compound | IC50 [1, 3] [nM] | IC50 [2] [nM] | IC50 ([1]; COLO 205, 20 h) [nM]
O=C1NCCN2c3c1sc(-c1cn[nH]c1)c3OC[C@@H]2CO [Compound 49, (S)-5-(hydroxymethyl)-2-(1H-pyrazol-4-yl)-4,5,7,8-tetrahydro-3-oxa-1-thia-5a,8-diazabenzo[cd]azulen-9(6H)-one] | 509 | < 1 | 
O=C1NC[C@H](CO)N2CCOc3c(-c4ccncc4)sc1c32 [Compound 50, (R)-6-(hydroxymethyl)-2-(pyridin-4-yl)-4,5,7,8-tetrahydro-3-oxa-1-thia-5a,8-diazabenzo[cd]azulen-9(6H)-one] | 268 | < 1 | 
O=C1NC2(CCC2)CN2CCOc3c(-c4cn[nH]c4)sc1c32 [Compound 51, 2-(1H-pyrazol-4-yl)-4,5-dihydro-6H-3-oxa-1-thia-5a,8-diazaspiro[benzo[cd]azulene-7,1′-cyclobutan]-2,2a1(9a)-dien-9(8H)-one] |  | < 1 | 18
COC[C@@H]1CN2CCOc3c(-c4cn[nH]c4)sc(c32)C(=O)N1 [Compound 54, (S)-7-(methoxymethyl)-2-(1H-pyrazol-4-yl)-4,5,7,8-tetrahydro-3-oxa-1-thia-5a,8-diazabenzo[cd]azulen-9(6H)-one] | 110 | < 1 | 
COC[C@@H]1CNC(=O)c2sc(-c3cn[nH]c3)c3c2N1CCO3 [Compound 55, (S)-6-(methoxymethyl)-2-(1H-pyrazol-4-yl)-4,5,7,8-tetrahydro-3-oxa-1-thia-5a,8-diazabenzo[cd]azulen-9(6H)-one] | 21 | < 1 | 
COC1(C[C@@H]2CNC(=O)c3sc(-c4cn[nH]c4)c4c3N2CCC4)CC1 [Compound 91, (9R)-9-[(1-methoxycyclopropyl)methyl]-3-(1H-pyrazol-4-yl)-2-thia-8,11-diazatricyclo [6.4.1.0^4,13]trideca-1(13),3-dien-12-one] | 660 | < 1 | 
C[C@@H]1CN2CC(F)(F)Oc3c(-c4cn[nH]c4)sc(c32)C(=O)N1 [Compound 93, (10R)-6,6-difluoro-10-methyl-3-(1H-pyrazol-4-yl)-5-oxa-2-thia-8,11-diazatricyclo [6.4.1.0^443] trideca-1(13), 3-dien-12-one] | 28 | < 1 | 
O=C1N[C@H](C2CCC2)CN2CC(F)(F)Oc3c(-c4cn[nH]c4)sc1c32 [Compound 100, (R)-7-cyclobutyl-4,4-difluoro-2-(1H-pyrazol-4-yl)-4,5,7,8-tetrahydro-3-oxa-1-thia-5a,8-diazabenzo[cd]azulen-9(6H)-one] | 23 | < 1 | 
O=C1N[C@@H](Cn2cccn2)CN2CC(F)(F)Cc3c(-c4cn[nH]c4)sc1c32 [Compound 102, (R)-7-((1H-pyrazol-1-yl)methyl)-4,4-difluoro-2-(1H-pyrazol-4-yl)-4,5,7,8-tetrahydro-3H-1-thia-5a,8-diazabenzo[cd]azulen-9(6H)-one] | 66 | < 1 | 
COC[C@H]1CN2CC(F)(F)Cc3c(-c4cn[nH]c4)sc(c32)C(=O)N1 [Compound 103, (10R)-6,6-difluoro-10-(methoxymethyl)-3-(1H-pyrazol-4-yl)-2-thia-8,11-diazatricyclo [6.4.1.0^4,13]trideca-1(13),3-dien-12-one] | 15 | < 1 | 

Continued, in another order:

IC50 [1, 3] [nM] | IC50 [2] [nM] | Compound | IC50 ([1]; COLO 205, 20 h) [nM]
150 | < 1 | CC(C)(O)C[C@@H]1CNC(=O)c2sc(-c3cn[nH]c3)c3c2N1CCO3 [Compound 104, (R)-6-(2-hydroxy-2-methylpropyl)-2-(1H-pyrazol-4-yl)-4,5,7,8-tetrahydro-3-oxa-1-thia-5a,8-diazabenzo[cd]azulen-9(6H)-one] | 
218 | < 1 | COC[C@@H]1CN2CC(F)(F)Cc3c(-c4cn[nH]c4)sc(c32)C(=O)N1 [Compound 115, (S)-4,4-difluoro-7-(methoxymethyl)-2-(1H-pyrazol-4-yl)-4,5,7,8-tetrahydro-3H-1-thia-5a,8-diazabenzo[cd]azulen-9(6H)-one] | 
27 | < 1 | O=C1N[C@@H]([C@@H]2CC(F)(F)CN2)CN2CC(F)(F)Cc3c(-c4cn[nH]c4)sc1c32 [Compound 135, (10R)-10-[(2S)-4,4-difluoropyrrolidin-2-yl]-6,6-difluoro-3-(1H-pyrazol-4-yl)-2-thia-8,11-diazatricyclo[6.4.1.04,13]trideca-1(13),3-dien-12-one] | 
16 | < 1 | CN1CC(F)(F)C[C@H]1[C@H]1CN2CC(F)(F)Cc3c(-c4cn[nH]c4)sc(c32)C(=O)N1 [Compound 136, (R)-7-((S)-4,4-difluoro-1-methylpyrrolidin-2-yl)-4,4-difluoro-2-(1H-pyrazol-4-yl)-4,5,7,8-tetrahydro-3H-1-thia-5a,8-diazabenzo[cd]azulen-9(6H)-one] | 
5 | < 1 | O=C1N[C@@H](COC(F)F)CN2CC(F)(F)Cc3c(-c4cn[nH]c4)sc1c32 [Compound 142, (R)-7-((difluoromethoxy)methyl)-4,4-difluoro-2-(1H-pyrazol-4-yl)-4,5,7,8-tetrahydro-3H-1-thia-5a,8-diazabenzo[cd]azulen-9(6H)-one] | 
